Laboratory results from patent US11046689B2, “Selective estrogen receptor down-regulators” (AstraZeneca AB, priority 2017, dated 2021).

What follows are molecules tested against Estrogen Receptor (ER) in MCF-7 cells (Homo sapiens (Human), UniProt P03372) (assay: MCF-7 ER down-regulation assay (immuno-fluorescence)). Details: stated where not >90%.
Format: cell-based

Chain of Estrogen Receptor (ER) in MCF-7 cells (P03372 whole entry): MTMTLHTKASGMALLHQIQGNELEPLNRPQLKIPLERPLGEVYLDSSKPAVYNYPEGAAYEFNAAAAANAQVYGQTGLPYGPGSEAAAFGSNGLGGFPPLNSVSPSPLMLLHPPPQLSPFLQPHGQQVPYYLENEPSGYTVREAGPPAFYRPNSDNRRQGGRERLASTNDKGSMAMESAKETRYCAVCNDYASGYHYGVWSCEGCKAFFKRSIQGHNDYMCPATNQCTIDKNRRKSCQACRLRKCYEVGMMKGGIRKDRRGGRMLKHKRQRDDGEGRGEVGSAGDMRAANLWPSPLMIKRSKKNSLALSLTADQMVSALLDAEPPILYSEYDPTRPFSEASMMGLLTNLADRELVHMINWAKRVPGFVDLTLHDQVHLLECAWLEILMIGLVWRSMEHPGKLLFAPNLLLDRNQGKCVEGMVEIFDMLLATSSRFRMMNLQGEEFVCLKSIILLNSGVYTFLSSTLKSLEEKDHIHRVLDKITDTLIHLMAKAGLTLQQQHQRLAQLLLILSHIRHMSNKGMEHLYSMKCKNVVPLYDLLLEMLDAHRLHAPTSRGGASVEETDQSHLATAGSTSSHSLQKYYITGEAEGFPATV

% downregulation (shown in brackets) | SMILES
88% | C[C@@H]1Cc2c([nH]c3ccccc23)[C@@H](c2c(F)ccc(OCCN(C)CCCF)c2F)N1C[C@H](C)C(=O)O [Example 144]
79% | C[C@@H]1Cc2c([nH]c3ccccc23)[C@@H](c2c(F)ccc(OCCN(C)CCCF)c2F)N1CC1(F)COC1 [Example 154, N-(2-(2,4-difluoro-3-((1R,3R)-2-((3-fluorooxetan-3-yl)methyl)-3-methyl-2,3,4,9-tetrahydro-1H-pyrido[3,4-b]indol-1-yl)phenoxy)ethyl)-3-fluoro-N-methyl-propan-1-amine]
−(40%) | COc1ccc(OCCNCCCF)cc1[C@@H]1c2[nH]c3ccccc3c2C[C@@H](C)N1C[C@H](C)C(=O)O [Example 53, (S)-3-((1R,3R)-1-(5-(2-((3-fluoropropyl)amino)ethoxy)-2-methoxy-phenyl)-3-methyl-1,3,4,9-tetrahydro-2H-pyrido[3,4-b]indol-2-yl)-2-methyl-propanoic acid]
68% | C[C@@H]1Cc2c([nH]c3ccccc23)[C@@H](c2c(F)ccc(OCCN(C)CCCF)c2C(F)F)N1C[C@H](C)C(=O)O [Example 148, (S)-3-((1R,3R)-1-(2-(difluoro-methyl)-6-fluoro-3-(2-((3-fluoro-propyl)(methyl)amino)ethoxy)phenyl)-3-methyl-1,3,4,9-tetrahydro-2H-pyrido[3,4-b]indol-2-yl)-2-methyl-propanoic acid]
86% | Cc1c(OCCN(C)CCCF)ccc(F)c1[C@@H]1c2[nH]c3ccccc3c2C[C@@H](C(F)(F)F)N1C[C@H](C)C(=O)O [Example 149, (S)-3-((1R,3S)-1-(6-fluoro-3-(2-((3-fluoropropyl)(methyl)amino)ethoxy)-2-methylphenyl)-3-(trifluoro-methyl)-1,3,4,9-tetrahydro-2H-pyrido[3,4-b]indol-2-yl)-2-methyl-propanoic acid]

Second part, the molecule before the results:

SMILES | % downregulation (shown in brackets)
COc1ccc(OCCNCCCF)c(F)c1[C@@H]1c2[nH]c3ccccc3c2C[C@@H](C)N1CC1(F)CC1 [Example 83, 3-fluoro-N-(2-(2-fluoro-3-((1R,3R)-2-((1-fluorocyclo-propyl)methyl)-3-methyl-2,3,4,9-tetrahydro-1H-pyrido[3,4-b]indol-1-yl)-4-methoxy-phenoxy)ethyl)propan-1-amine] | 90%
Cc1c(OCCNCCCF)ccc(F)c1[C@@H]1c2[nH]c3ccccc3c2CC(C)(C)N1C[C@H](C)C(=O)O [Example 134, (S)-3-((R)-1 (6-fluoro-3-(2-((3-fluoro-propyl)amino)ethoxy)-2-methylphenyl)-3,3-dimethyl-1,3,4,9-tetrahydro-2H-pyrido[3,4-b]indol-2-yl)-2-methyl-propanoic acid] | 85%
COc1ccc(O[C@H](C)CNCCCF)cc1[C@@H]1c2[nH]c3ccccc3c2C[C@@H](C)N1CC(F)(F)CO [Example 47, 2,2-difluoro-3-((1R,3R)-1-(5-(((R)-1-((3-fluoropropyl)amino)propan-2-yl)oxy)-2-methoxyphenyl)-3-methyl-1,3,4,9-tetrahydro-2H-pyrido[3,4-b]indol-2-yl)propan-1-ol] | 81%
COCc1ccc(OCCNCCCF)cc1[C@@H]1c2[nH]c3ccccc3c2C[C@@H](C)N1CC(F)(F)F [Example 71, 3-fluoro-N-(2-(4-(methoxy-methyl)-3-((1R,3R)-3-methyl-2-(2,2,2-trifluoroethyl)-2,3,4,9-tetrahydro-1H-pyrido[3,4-b]indol-1-yl)phenoxy)ethyl)propan-1-amine] | 90%
COc1ccc(OCCNCCCF)c(F)c1[C@@H]1c2[nH]c3ccccc3c2C[C@@H](C)N1CC1(F)COC1 [Example 84, 3-fluoro-N-(2-(2-fluoro-3-((1R,3R)-2-((3-fluorooxetan-3-yl)methyl)-3-methyl-2,3,4,9-tetrahydro-1H-pyrido[3,4-b]indol-1-yl)-4-methoxy-phenoxy)ethyl)propan-1-amine] | 83%
C[C@@H]1Cc2c([nH]c3ccccc23)[C@@H](c2cccc(OCCNCCCF)n2)N1CC(F)(F)F [Example 34, 3-fluoro-N-(2-((6-((1S,3R)-3-methyl-2-(2,2,2-trifluoroethyl)-2,3,4,9-tetrahydro-1H-pyrido[3,4-b]indol-1-yl)pyridin-2-yl)oxy)ethyl)propan-1-amine] | −(41%)
COc1ccc(OC[C@@H](C)NCCCF)cc1[C@@H]1c2[nH]c3ccccc3c2C[C@@H](C)N1CC(F)(F)CO [Example 50, 2,2-difluoro-3-((1R,3R)-1-(5-((R)-2-((3-fluoropropyl)amino)propoxy)-2-methoxyphenyl)-3-methyl-1,3,4,9-tetrahydro-2H-pyrido[3,4-b]indol-2-yl)propan-1-ol] | 81%
